Measured values published in patent US6974797B2, “Cross-linked glycopeptide-cephalosporin antibiotics” (Theravance, Inc., priority 2001, dated 2005).
In brackets after ≈: the same amount, converted by molar mass.

What was measured:
[1] = test system: Methicillin-resistant S. aureus (MRSA); test: Minimal inhibitory concentration (MIC90), broth microdilution, MRSA strains; assay type: cell-based, Staphylococcus aureus
Description: (§1) Minimal inhibitory concentration (MICs) assays were performed using the broth microdilution method set forth in NCCLS guidelines (see, NCCLS. 2000. Methods for Dilution Antimicrobial Susceptibility Tests for Bacteria That Grow Aerobically; Approved Standard—Fifth Ed., Vol. 20, No. 2). Bacterial strains were obtained from the American Type Tissue Culture Collection (ATCC), Stanford University Hospital (SU), Kaiser Permanente Regional Laboratory in Berkeley (KPB), Massachusetts General Hospital (MGH), the Centers for Disease Control (CDC), the San Francisco Veterans' Administration Hospital (SFVA) or the University of California San Francisco Hospital (UCSF). Vancomycin-resistant enterococci were phenotyped as Van A or Van B based on their sensitivity to teicoplanin. Some vancomycin-resistant enterococci that had been genotyped as Van A, Van B, Van C1 or Van C2 were also obtained from the Mayo Clinic.
(§2) In this assay, cryopreserved bacterial cultures of reference and clinical strains were streaked for isolation on appropriate agar medium (i.e., Trypticase Soy Agar, Trypticase Soy Agar with defibrinated sheep erthrocytes, Brain Heart Infusion Agar, Chocolate Agar). Following incubation to allow formation of colonies, these plates were sealed with parafilm and stored refrigerated for up to two weeks. […] The MIC was read visually as the lowest concentration well with no bacterial growth. […]

[2] = test system: Methicillin-resistant S. epidermitis (MRSE) and other coagulase-negative staphylococci; test: Minimal inhibitory concentration (MIC90), broth microdilution, MRSE and other coagulase-negative staphylococci; assay type: cell-based, Staphylococcus epidermidis
Description: as §1, §2

[3] = test system: methicillin-resistant S. aureus strains; test: Minimal inhibitory concentration (MIC), broth microdilution, individual MRSA strains; assay type: cell-based, Staphylococcus aureus
Description: as §1
In this assay, cryopreserved bacterial cultures of reference and clinical strains were streaked for isolation on appropriate agar medium (i.e., Trypticase Soy Agar, Trypticase Soy Agar with defibrinated sheep erthrocytes, Brain Heart Infusion Agar, Chocolate Agar). Following incubation to allow formation of colonies, these plates were sealed with parafilm and stored refrigerated for up to two weeks. For preparation of assay inocula and to ensure low variability, several colonies from a bacterial isolate cultured on the agar plates were pricked with an inoculating loop and aseptically transferred to Mueller-Hinton Broth (supplemented with divalent cations to required levels based on manufacturer's certification). The broth culture was grown overnight at 35° C., diluted in fresh prewarmed broth and grown to log phase; this is equivalent to a 0.5 MacFarland standard or 1×10^8 colony forming units per milliliter (CFU/mL). Not all cell suspensions, due to species variability, contained 1×10^8 CFU/mL when turbidity is equivalent to the MacFarland standard, therefore acceptable adjustments (based on NCCLS guidelines) were made in dilutions of different bacterial strains. […] The plates were then incubated 18-24 hours at 35° C. The MIC was read visually as the lowest concentration well with no bacterial growth. Bacterial growth is defined as more than three pinpoint colonies, a button of precipitated cells larger than 2 mm in diameter, or obvious turbidity.
Strains routinely tested in the initial screen included methicillin-sensitive Staphylococcus aureus (MSSA), methicillin-resistant Staphylococcus aureus (MRSA), Staphylococcus aureus producing penicillinase, methicillin-sensistive Staphylococcus epidermidis (MSSE), methicillin-resistant Staphylococcus epidermidis (MRSE), vancomycin-sensitive Enterococcus faecium (EFMVS), vancomycin-sensitive Enterococcus faecalis (EFSVS), vancomycin-resistant Enterococcus faecium also resistant to teicoplanin (EFMVR Van A), vancomycin-resistant Enterococcus faecium sensistive to teicoplanin (EFMVR Van B), vancomycin-resistant Enterococcus faecalis also resistant to teicoplanin (EFSVR Van A), vancomycin-resistant Enterococcus faecalis sensitive to teicoplanin (EFSVR Van B), penicillin-sensitive Streptococcus pneumoniae (PSSP) and penicillin-resistant Streptococcus pneumoniae (PSRP). Because of the inability of PSSP and PSRP to grow well in Mueller-Hinton broth, MICs with those strains were determined using either TS broth supplemented with defibrinated blood or Haemophilus test medium.

[4] = test system: MSSA 13709; test: Time-kill assay, MSSA 13709; assay type: cell-based, Staphylococcus aureus
Description: (§3) This time-kill assay is a method for measuring the rate of bactericidal activity of a test compound. […] A rapid time-kill is desirable to quickly prevent bacterial colonization and reduce host tissue damage.
(§4) Bacteria were diluted in prewarmed media in shake flasks and incubated with shaking (200 rpm, 35° C.). At 0, 1, 4, and 24 hours samples were withdrawn from the flasks and bacteria were enumerated by plate counting. Subsequent to the initial sampling, a compound to be assayed was added to the shake flask culture. Plate counts at these intervals previous to and following addition of the compound were expressed graphically in a time-kill curve.

[5] = test system: MRSA 33591; test: Time-kill assay, MRSA 33591; assay type: cell-based, Staphylococcus aureus
Description: as §3, §4

[6] = test system: MRSA 33591; test: In vivo efficacy in neutropenic mice (thigh infection); parameters: species or system Staphylococcus aureus; conditions: neutropenic male CD-1 mice, MRSA 33591 thigh infection, iv, 24 hours post-treatment
Description: Animals (male CD-1 mice, 20-30 g) were acquired from Charles Rivers Laboratories (Gilroy, Calif.) and allowed access to food and water ad libitum. Neutropenia was induced via 200 mg/kg intraperitoneal (IP) injection of cyclophosphamide given four and two days prior to the inoculation of bacteria.
The organism used was either a susceptible or resistant strain of clinically relevant gram positive pathogens, such as methicillin-susceptible Staphylococcus aureus (MSSA 13709) and methicillin-resistant Staphylococcus aureus (MRSA 33591). The bacterial inoculum concentration was ˜10^6 CFU/mL. Animals were lightly anesthetized with isoflurane and […] of the bacterial inoculum was injected into the anterior thigh. One hour after the inoculation, animals were dosed intravenously with vehicle or the appropriate dose of the test compound. At 0 hours and 24 hours post-treatment, the animals were euthanized (CO2 asphyxiation) and the anterior and posterior thigh collected aseptically. The thigh was placed into 10 mL sterile saline and homogenized. Dilutions of the homogenate were plated onto triptic soy agar plates which were incubated overnight. The number of bacterial colonies on a given plate was multiplied by the dilution factor, divided by the thigh weight (in grams) and expressed as log CFU/g. […]

[7] = 5 wt. % dextrose buffer solution, titrated to pH 3, duplicate sample preparations
Description: The aqueous solubility of a compound of this invention was determined using the following procedure. A 5 wt. % dextrose buffer solution at pH 2.2 was prepared by adding 1 mL of 1 N hydrochloric acid (Aldrich) to 99 mL of a 5 wt. % aqueous dextrose solution (Baxter).
A 1 mg/mL stock solution for calibration standards was then prepared by dissolving 1 mg of the test compound in 1 mL of DMSO. This solution was vortexed for 30 seconds and then sonicated for 10 minutes. The stock solution was then diluted with water to prepare calibration standards having the following concentrations: 50, 125, 250, 375 and 500 ug/mL.
Each test compound (30 mg) was weighed into a Millipore non-sterile, Ultrafree-MC 0.1 um filter unit (Millipore UFC30VVOO) and a magnetic stir bar was added to each unit. The 5 wt. % dextrose buffer solution (750 uL) was then added to each unit and these mixtures were vortexed for 5 minutes. The filter units were then placed in an Eppendorf tube rack and the tube rack was placed on top of a magnetic stirrer. […]
The calibration standards and the test samples were analyzed by reverse-phase HPLC using the following conditions:
The solubility of each test sample was calculated by comparing the peak area of the test sample to the calibration curve and multiplying by the dilution factor.

Compound | MIC ([3]; MRSA 33591) | MIC ([3]; MRSA MED-84) | MIC ([3]; MRSA MED-85) | MIC ([3]; MRSA MED-86) | MIC ([3]; MRSA MED-87) | MIC ([3]; MRSA MED-88) | MIC ([3]; MRSA MED-89) | MIC ([3]; MRSA MED-103) | MIC ([3]; MRSA MED-104) [µg/mL] | MIC ([3]; MRSA MED-107) | MIC ([3]; MRSA MED-110) [µg/mL] | MIC ([3]; MRSA MED-572) | also measured
CNC(CC(C)C)C(=O)NC1C(=O)NC(CC(N)=O)C(=O)NC2C(=O)NC3C(=O)NC(C(=O)NC(C(=O)NCCCON=C(C(=O)NC4C(=O)N5C(C(=O)[O-])=C(C[n+]6ccccc6)CSC45)c4nc(N)sc4Cl)c4cc(O)cc(O)c4-c4cc3ccc4O)C(O)c3ccc(c(Cl)c3)Oc3cc2cc(c3OC2OC(CO)C(O)C(O)C2OC2CC(C)(N)C(O)C(C)O2)Oc2ccc(cc2Cl)C1O.Cl.Cl.Cl (centres unmarked) [Compound 1] | ≦0.1 μg/mL | ≦0.1 μg/mL | ≦0.1 μg/mL | ≦0.1 μg/mL | ≦0.1 μg/mL | ≦0.1 μg/mL | ≦0.1 μg/mL | ≦0.1 μg/mL | 0.10 | ≦0.1 μg/mL | 0.20 | ≦0.1 μg/mL | MIC90 (minimum inhibitory concentration for 90% of strains tested) ([1]; n = 53 strains): <0.1 µg/mL; MIC90 (minimum inhibitory concentration for 90% of strains tested) ([2]; MRSE and other coagulase-negative staphylococci, n = 34 strains): <0.1 µg/mL; bactericidal concentration (≧3 log decrease in bacterial cell numbers) ([4]; MSSA 13709, in 4 hours): ≤ 1 μg/mL; bactericidal concentration (≧3 log decrease in bacterial cell numbers) ([5]; MRSA 33591, in 4 hours): ≤ 1 μg/mL; ED50 (dose required to produce 50% of the maximum reduction in thigh titre) [6]: < 0.20 mg/kg; aqueous solubility [7]: > 47.9 mg/mL
CN[C@H](CC(C)C)C(=O)N[C@H]1C(=O)N[C@@H](CC(N)=O)C(=O)N[C@H]2C(=O)N[C@H]3C(=O)N[C@H](C(=O)N[C@H](C(=O)O)c4cc(O)cc(O)c4-c4cc3ccc4O)[C@H](O)c3ccc(c(Cl)c3)Oc3cc2cc(c3O[C@@H]2O[C@H](CO)[C@@H](O)[C@H](O)[C@H]2O[C@H]2C[C@](C)(N)[C@H](O)[C@H](C)O2)Oc2ccc(cc2Cl)[C@H]1O [Vancomycin, vancomycin, reference compound] | – | – | – | – | – | – | – | – | – | – | – | – | MIC90 ([1]; Staphylococcus aureus, read-out: MIC90 (minimum inhibitory concentration for 90% of strains tested)): 3 µg/mL (≈ 2.07 µM); MIC90 ([2]; Staphylococcus epidermidis, MRSE, read-out: MIC90 (minimum inhibitory concentration for 90% of strains tested)): 4 µg/mL (≈ 2.76 µM); bactericidal concentration (≧3 log decrease in bacterial cell numbers) ([4]; MSSA 13709, in 24 hours): 4 μg/mL; bactericidal concentration (≧3 log decrease in bacterial cell numbers) ([5]; MRSA 33591, in 24 hours): 4 μg/mL; ED50 ([6]; Staphylococcus aureus, read-out: ED50 (dose required to produce 50% of the maximum reduction in thigh titre)): 9 mg/kg
CNC(CC(C)C)C(=O)NC1C(=O)NC(CC(N)=O)C(=O)NC2C(=O)NC3C(=O)NC(C(=O)NC(C(=O)NCCCON=C(C(=O)NC4C(=O)N5C(C(=O)[O-])=C(C[n+]6ccccc6)CSC45)c4csc(N)n4)c4cc(O)cc(O)c4-c4cc3ccc4O)C(O)c3ccc(c(Cl)c3)Oc3cc2cc(c3OC2OC(CO)C(O)C(O)C2OC2CC(C)(N)C(O)C(C)O2)Oc2ccc(cc2Cl)C1O (centres unmarked) [Compound 34, reference compound] | 0.17 µg/mL (≈ 0.0872 µM) | 0.29 µg/mL (≈ 0.149 µM) | 0.32 µg/mL (≈ 0.164 µM) | 0.29 µg/mL (≈ 0.149 µM) | 0.49 µg/mL (≈ 0.251 µM) | 0.34 µg/mL (≈ 0.174 µM) | 0.18 µg/mL (≈ 0.0924 µM) | 0.20 µg/mL (≈ 0.103 µM) | 0.58 (≈ 0.298 µM) | 0.34 µg/mL (≈ 0.174 µM) | 0.49 (≈ 0.251 µM) | <0.1 µg/mL | –
